Assay results as given in patent EP3821889A1, “METHODS FOR USING LOW-DOSE […] MYOCARIAL INFARCTION” (Institut de Cardiologie de Montréal, priority 2019, dated 2021).
Where “and” joins values, the source holds several entries; their conditions need not be identical. Equal entries are not always repeated. Entries after “also recorded” stand apart in the source; their conditions may differ.

Key:
[1] = tested on: High-sensitivity C-reactive protein; details: in vivo
[2] = tested on: patients recruited within 30 days after a myocardial infarction; details: in vivo
[3] = tested on: patients recruited within 30 days after a myocardial infarction; details: human, in vivo
[4] = tested on: patients with stable coronary disease; details: in vivo; cited from earlier work
[5] = tested on: white-cell count; details: in vivo
[6] = CIRT; cited from earlier work

## COc1cc2c(c(OC)c1OC)-c1ccc(OC)c(=O)cc1[C@@H](NC(C)=O)CC2 [Colchicine]
[1]
  Hs-C reactive protein, 6 months, geometric mean (IQR): 1.37 (0.75, 2.13) mg/L
  Hs-C reactive protein, Adjusted GM percent change (95% CI): -70.0% and -70.0 (-74.6, -64.5) %
  Hs-C reactive protein, Placebo-adjusted GM percent change (95% CI): -10.1% and -10.1 (-28.6, 13.4) %
  Hs-C reactive protein, Randomization, geometric mean (IQR): 4.27 (2.12, 7.22) mg/L
  reduction in the C-reactive protein level: > 65%
[2]
  Anemia: 14 (0.6) number of patients (percent)
  Any serious adverse event: 383 (16.4) number of patients (percent)
  At least one gastrointestinal adverse event: 17.5%
  Diarrhea reported, % of the patients: 9.7%
  Gastrointestinal hemorrhage: 7 (0.3) number of patients (percent)
  Gastrointestinal serious adverse event: 46 (2.0) number of patients (percent)
  Hospitalization for heart failure: 25 (1.1) number of patients (percent)
  Infection as a serious adverse event, % of the patients: 2.2%
  Infection serious adverse event: 51 (2.2) number of patients (percent)
  Leukopenia: 2 (0.1) number of patients (percent)
  Nausea adverse event: 43 (1.8) number of patients (percent)
  Pneumonia reported as a serious adverse event, % of the patients: 0.9%
  Pneumonia serious adverse event: 21 (0.9) number of patients (percent)
  Septic shock serious adverse event: 2 (0.1) number of patients (percent)
  Thrombocytopenia: 3 (0.1) number of patients (percent)
  incidence of adverse events considered to be related to trial drug: 16.0%
  incidence of septic shock (in words): did not increase the incidence of septic shock
  nausea, % of the patients: 1.8%
  overall incidence of serious adverse events: 16.4%
  serious adverse event of myopathy (in words): no serious adverse event of myopathy linked to colchicine
  trial regimen discontinued, % of the patients: 18.4%
[3]
  Adjusted Hazard Ratio (95% CI), time to first primary endpoint: 0.78 (0.62-0.98)
  Death: 43 (1.8) number (percent)
  Death from cardiovascular causes: 20 (0.8) number (percent)
  Deep venous thrombosis or pulmonary embolus: 10 (0.4) number (percent)
  Hazard Ratio (95% CI), CV death: 0.83 (0.45-1.53)
  Hazard Ratio (95% CI), Death: 0.98 (0.64–1.49)
  Hazard Ratio (95% CI), Deep venous thrombosis or pulmonary embolus: 1.43 (0.54–3.75)
  Hazard Ratio (95% CI), MI: 0.84 (0.62-1.14)
  Hazard Ratio (95% CI), Resuscitated cardiac arrest: 1.00 (0.29-3.46)
  Hazard Ratio (95% CI), Stroke: 0.26 (0.10-0.71)
  Hazard Ratio (95% CI), Urgent hospitalization for angina requiring revascularization: 0.47 (0.28-0.78)
  Hazard Ratio (95% CI), WLW model, 1st Event: 0.77 (0.61; 0.96)
  Hazard Ratio (95% CI), WLW model, 2nd Event: 0.73 (0.48; 1.11)
  Hazard Ratio (95% CI), WLW model, 3rd Event: 0.64 (0.37; 1.10)
  Hazard Ratio (95% CI), WLW model, Average: 0.77 (0.61; 0.96)
  Hazard Ratio (95% CI), total primary endpoint events, Andersen-Gill model: 0.69 (0.54; 0.88)
  MI: 77 (3.4%) no. (%)
  Myocardial infarction: 89 (3.8) number (percent)
  Number of primary endpoint events per patient: 0 (number of patients): 2235
  Number of primary endpoint events per patient: 1 (number of patients): 111
  Number of primary endpoint events per patient: 2 (number of patients): 18
  Number of primary endpoint events per patient: 3 (number of patients): 1
  Number of primary endpoint events per patient: 4 (number of patients): 1
  Primary endpoint: 115(5.1%) no. (%)
  Rate of primary endpoint events per 100 patient-months: 0.29 per 100 patient-months
  Secondary composite end point: 111 (4.7) number (percent)
  Total number of primary endpoint events: 154
  Urgent hospitalization for angina leading to revascularization: 25 (1.1) number (percent)
  Urgent hospitalization for angina requiring revascularization: 22 (1.0%) no. (%)
  ischemic cardiovascular events / primary composite efficacy end point compared with placebo (in words): significantly lower percentage of patients with ischemic cardiovascular events than placebo; also recorded: statistically significant lower risk of ischemic cardiovascular events than placebo
  primary end point occurred in % of the patients: 5.5% and 5.1%
  secondary efficacy end point occurred in % of the patients: 4.7%
[4]
  cardiovascular events (in words): fewer cardiovascular events
[5]
  Circulating lymphocytes, 12 months, geometric mean (IQR): 1.83 (1.50, 2.44) 10^3/µL
  Circulating lymphocytes, Adjusted GM percent change (95% CI): 1.80 (-0.46, 4.11) %
  Circulating lymphocytes, Placebo-adjusted GM percent change (95% CI): 1.10 (-2.06, 4.36) %
  Circulating lymphocytes, Randomization, geometric mean (IQR): 1.79 (1.40, 2.40) 10^3/µL
  Circulating neutrophils, 12 months, geometric mean (IQR): 3.95 (3.27, 5.08) 10^3/µL
  Circulating neutrophils, Adjusted GM percent change (95% CI): -27.63 (-29.48, -25.73) %
  Circulating neutrophils, Placebo-adjusted GM percent change (95% CI): 0.45 (-3.28, 4.32) %
  Circulating neutrophils, Randomization, geometric mean (IQR): 5.45 (4.36, 7.15) 10^3/µL
  Total white blood cell count, 12 months, geometric mean (IQR): 6.95 (5.99, 8.30) 10^3/µL
  Total white blood cell count, Adjusted GM percent change (95% CI): -18.8% and -18.81 (-20.12, -17.47) %
  Total white blood cell count, Placebo-adjusted GM percent change (95% CI): 0.3% and 0.26 (-2.15, 2.72) %
  Total white blood cell count, Randomization, geometric mean (IQR): 8.54 (7.10, 10.40) 10^3/µL

## CN(Cc1cnc2nc(N)nc(N)c2n1)c1ccc(C(=O)N[C@@H](CCC(=O)O)C(=O)O)cc1 [methotrexate]
[6]
  cardiovascular outcomes and plasma markers of inflammation (in words): did not affect cardiovascular outcomes or plasma markers of inflammation
